# Experimental data published in ChEMBL document CHEMBL5465560, “Selectivity Literature for EUbOPEN Chemogenomic Library” (2024).
# How the values were obtained:
# [1] = molecular target: Calcium/calmodulin-dependent protein kinase type II subunit gamma (Homo sapiens) (UniProt Q13555); test: Selectivity interaction (KinomeScan (DiscoverX)) EUB0000229b CAMK2G; conditions: at 10 µM
# [2] = molecular target: T1, Serine/threonine-protein kinase haspin (Homo sapiens) (UniProt Q8TF76); test: Selectivity interaction (KinomeScan (DiscoverX)) EUB0001550a GSG2; conditions: at 1 µM
# T1 sequence (whole entry): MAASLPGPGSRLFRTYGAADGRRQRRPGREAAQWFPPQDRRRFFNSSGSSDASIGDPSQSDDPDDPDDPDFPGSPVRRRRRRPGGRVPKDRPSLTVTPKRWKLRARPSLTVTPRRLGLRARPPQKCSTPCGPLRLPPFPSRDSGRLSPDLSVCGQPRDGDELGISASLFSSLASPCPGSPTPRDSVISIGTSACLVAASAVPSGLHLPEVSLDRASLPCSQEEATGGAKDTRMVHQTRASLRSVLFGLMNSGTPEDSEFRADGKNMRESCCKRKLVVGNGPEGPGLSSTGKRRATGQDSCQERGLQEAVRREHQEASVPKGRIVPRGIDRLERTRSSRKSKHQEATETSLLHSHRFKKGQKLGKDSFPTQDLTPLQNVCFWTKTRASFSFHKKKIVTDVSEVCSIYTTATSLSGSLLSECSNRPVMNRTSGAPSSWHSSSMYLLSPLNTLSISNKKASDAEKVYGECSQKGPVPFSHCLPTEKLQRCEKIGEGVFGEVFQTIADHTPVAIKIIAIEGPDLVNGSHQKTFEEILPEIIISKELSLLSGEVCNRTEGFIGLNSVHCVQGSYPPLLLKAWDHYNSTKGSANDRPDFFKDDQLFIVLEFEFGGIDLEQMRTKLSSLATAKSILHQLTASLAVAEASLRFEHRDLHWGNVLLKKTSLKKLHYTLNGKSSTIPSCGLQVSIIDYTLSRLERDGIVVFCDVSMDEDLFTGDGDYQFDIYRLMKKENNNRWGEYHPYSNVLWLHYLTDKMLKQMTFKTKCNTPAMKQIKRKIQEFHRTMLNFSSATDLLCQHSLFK
# [3] = molecular target: Ephrin type-A receptor 5 (Homo sapiens) (UniProt P54756); test: Selectivity interaction (KinomeScan (DiscoverX)) EUB0000666a EPHA5; conditions: at 10 µM
# [4] = molecular target: Mitogen-activated protein kinase 8 (Homo sapiens, UniProt P45983); test: Selectivity interaction (Millipore kinase profiler) EUB0000124b MAPK8; conditions: at 10 µM
# [5] = Selectivity interaction (ActivX KiNativ screen (kinase selectivity in THP-1 cell lysates)) EUB0000639a STLK6; conditions: Selectivity number of targets 283, Source Knowledge https://pubmed.ncbi.nlm.nih.gov/28498658/
# [6] = molecular target: T2, Serine/threonine-protein kinase tousled-like 1 (Homo sapiens) (UniProt Q9UKI8); test: Selectivity interaction (ActivX KiNativ screen (kinase selectivity in THP-1 cell lysates)) EUB0000639a TLK1; assay type: subcellular; conditions: lysate, at 5 µM
# T2 sequence (whole entry): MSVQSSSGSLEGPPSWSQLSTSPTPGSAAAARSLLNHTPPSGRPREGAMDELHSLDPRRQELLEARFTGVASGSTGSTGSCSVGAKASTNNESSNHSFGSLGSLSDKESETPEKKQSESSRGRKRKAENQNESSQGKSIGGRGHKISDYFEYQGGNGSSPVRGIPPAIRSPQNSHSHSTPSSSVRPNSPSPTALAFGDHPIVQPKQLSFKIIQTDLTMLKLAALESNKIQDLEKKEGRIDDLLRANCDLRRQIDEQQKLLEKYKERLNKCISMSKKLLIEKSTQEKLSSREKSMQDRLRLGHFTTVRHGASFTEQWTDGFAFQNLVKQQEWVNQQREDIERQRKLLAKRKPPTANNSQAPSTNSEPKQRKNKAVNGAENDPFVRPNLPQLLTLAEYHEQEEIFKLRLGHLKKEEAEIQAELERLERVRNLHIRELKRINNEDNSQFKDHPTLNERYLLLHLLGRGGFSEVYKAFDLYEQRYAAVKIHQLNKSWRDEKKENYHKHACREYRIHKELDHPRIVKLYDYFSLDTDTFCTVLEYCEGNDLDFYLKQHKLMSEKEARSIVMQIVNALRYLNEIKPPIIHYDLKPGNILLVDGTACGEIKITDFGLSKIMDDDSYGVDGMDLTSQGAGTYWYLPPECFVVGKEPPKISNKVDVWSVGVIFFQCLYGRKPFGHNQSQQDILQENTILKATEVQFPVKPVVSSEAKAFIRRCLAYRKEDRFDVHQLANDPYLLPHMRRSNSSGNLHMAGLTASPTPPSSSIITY
# [7] = molecular target: Tyrosine-protein kinase receptor UFO (Homo sapiens) (UniProt P30530); test: Selectivity interaction (KinomeScan (DiscoverX)) EUB0001049a AXL; conditions: at 1 µM
# [8] = molecular target: Serine/threonine-protein kinase PAK 6 (Homo sapiens) (UniProt Q9NQU5); test: Selectivity interaction (KinomeScan (DiscoverX)) EUB0000695a PAK6; conditions: at 100 nM
# [9] = molecular target: Ribosomal protein S6 kinase alpha-5 (Homo sapiens) (UniProt O75582); test: Selectivity interaction (KinomeScan (DiscoverX)) EUB0000695a RPS6KA5; conditions: at 100 nM
# [10] = molecular target: Myosin light chain kinase, smooth muscle (Homo sapiens, UniProt Q15746); test: Selectivity interaction (KinomeScan (DiscoverX)) EUB0000595a MYLK; conditions: at 10 µM
# [11] = molecular target: Insulin-like growth factor 1 receptor (Homo sapiens, UniProt P08069); test: Selectivity interaction (KinomeScan (DiscoverX)) EUB0000618a IGF1R; conditions: at 10 µM
# [12] = molecular target: T3, Interleukin-1 receptor-associated kinase 4 (Homo sapiens) (UniProt Q9NWZ3); test: Selectivity interaction (Ambit KINOMEscan and KiNATiv profiling in Jurkat cells) EUB0000090b IRAK4; assay type: cell-based; conditions: at 1 µM
# T3 sequence (whole entry): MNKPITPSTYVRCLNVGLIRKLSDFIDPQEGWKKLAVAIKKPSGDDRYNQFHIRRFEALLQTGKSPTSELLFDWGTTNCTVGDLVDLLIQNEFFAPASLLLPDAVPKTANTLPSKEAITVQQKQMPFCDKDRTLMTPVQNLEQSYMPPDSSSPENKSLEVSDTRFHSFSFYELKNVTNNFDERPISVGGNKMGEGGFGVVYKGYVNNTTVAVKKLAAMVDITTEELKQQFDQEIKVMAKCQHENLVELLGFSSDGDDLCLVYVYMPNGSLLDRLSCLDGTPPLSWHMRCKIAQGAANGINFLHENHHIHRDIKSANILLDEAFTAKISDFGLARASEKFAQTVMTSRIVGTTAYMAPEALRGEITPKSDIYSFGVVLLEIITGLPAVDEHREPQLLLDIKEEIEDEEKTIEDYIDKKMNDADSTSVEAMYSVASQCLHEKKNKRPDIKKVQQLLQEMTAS
# Mitogen-activated protein kinase 8, sequence (P45983 whole entry): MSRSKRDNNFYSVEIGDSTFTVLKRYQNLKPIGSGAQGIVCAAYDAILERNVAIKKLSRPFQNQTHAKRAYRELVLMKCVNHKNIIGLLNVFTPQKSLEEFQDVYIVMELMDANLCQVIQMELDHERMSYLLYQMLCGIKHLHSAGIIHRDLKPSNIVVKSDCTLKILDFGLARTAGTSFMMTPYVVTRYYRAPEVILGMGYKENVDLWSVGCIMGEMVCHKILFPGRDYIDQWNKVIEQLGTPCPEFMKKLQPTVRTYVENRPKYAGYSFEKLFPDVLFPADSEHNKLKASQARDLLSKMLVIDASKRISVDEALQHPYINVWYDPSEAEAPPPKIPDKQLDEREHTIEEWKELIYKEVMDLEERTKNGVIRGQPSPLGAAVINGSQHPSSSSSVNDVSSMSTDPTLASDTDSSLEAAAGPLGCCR
# Calcium/calmodulin-dependent protein kinase type II subunit gamma (Homo sapiens), sequence (Q13555 whole entry): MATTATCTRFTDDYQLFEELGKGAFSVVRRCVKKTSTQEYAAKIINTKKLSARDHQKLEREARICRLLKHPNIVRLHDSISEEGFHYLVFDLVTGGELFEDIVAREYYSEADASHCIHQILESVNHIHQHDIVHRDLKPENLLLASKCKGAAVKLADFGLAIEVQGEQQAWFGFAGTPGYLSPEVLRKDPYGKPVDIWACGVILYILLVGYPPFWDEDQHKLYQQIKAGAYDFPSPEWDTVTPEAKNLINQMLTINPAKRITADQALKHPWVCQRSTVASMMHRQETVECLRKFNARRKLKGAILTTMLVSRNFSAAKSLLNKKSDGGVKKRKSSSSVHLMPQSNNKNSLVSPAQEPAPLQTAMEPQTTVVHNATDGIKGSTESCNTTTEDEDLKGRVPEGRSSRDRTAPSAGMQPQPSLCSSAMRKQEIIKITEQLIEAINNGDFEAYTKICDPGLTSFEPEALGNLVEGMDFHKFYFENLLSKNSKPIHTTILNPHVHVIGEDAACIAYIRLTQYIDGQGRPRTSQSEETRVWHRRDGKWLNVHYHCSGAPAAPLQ
# Myosin light chain kinase, smooth muscle, sequence (Q15746 whole entry): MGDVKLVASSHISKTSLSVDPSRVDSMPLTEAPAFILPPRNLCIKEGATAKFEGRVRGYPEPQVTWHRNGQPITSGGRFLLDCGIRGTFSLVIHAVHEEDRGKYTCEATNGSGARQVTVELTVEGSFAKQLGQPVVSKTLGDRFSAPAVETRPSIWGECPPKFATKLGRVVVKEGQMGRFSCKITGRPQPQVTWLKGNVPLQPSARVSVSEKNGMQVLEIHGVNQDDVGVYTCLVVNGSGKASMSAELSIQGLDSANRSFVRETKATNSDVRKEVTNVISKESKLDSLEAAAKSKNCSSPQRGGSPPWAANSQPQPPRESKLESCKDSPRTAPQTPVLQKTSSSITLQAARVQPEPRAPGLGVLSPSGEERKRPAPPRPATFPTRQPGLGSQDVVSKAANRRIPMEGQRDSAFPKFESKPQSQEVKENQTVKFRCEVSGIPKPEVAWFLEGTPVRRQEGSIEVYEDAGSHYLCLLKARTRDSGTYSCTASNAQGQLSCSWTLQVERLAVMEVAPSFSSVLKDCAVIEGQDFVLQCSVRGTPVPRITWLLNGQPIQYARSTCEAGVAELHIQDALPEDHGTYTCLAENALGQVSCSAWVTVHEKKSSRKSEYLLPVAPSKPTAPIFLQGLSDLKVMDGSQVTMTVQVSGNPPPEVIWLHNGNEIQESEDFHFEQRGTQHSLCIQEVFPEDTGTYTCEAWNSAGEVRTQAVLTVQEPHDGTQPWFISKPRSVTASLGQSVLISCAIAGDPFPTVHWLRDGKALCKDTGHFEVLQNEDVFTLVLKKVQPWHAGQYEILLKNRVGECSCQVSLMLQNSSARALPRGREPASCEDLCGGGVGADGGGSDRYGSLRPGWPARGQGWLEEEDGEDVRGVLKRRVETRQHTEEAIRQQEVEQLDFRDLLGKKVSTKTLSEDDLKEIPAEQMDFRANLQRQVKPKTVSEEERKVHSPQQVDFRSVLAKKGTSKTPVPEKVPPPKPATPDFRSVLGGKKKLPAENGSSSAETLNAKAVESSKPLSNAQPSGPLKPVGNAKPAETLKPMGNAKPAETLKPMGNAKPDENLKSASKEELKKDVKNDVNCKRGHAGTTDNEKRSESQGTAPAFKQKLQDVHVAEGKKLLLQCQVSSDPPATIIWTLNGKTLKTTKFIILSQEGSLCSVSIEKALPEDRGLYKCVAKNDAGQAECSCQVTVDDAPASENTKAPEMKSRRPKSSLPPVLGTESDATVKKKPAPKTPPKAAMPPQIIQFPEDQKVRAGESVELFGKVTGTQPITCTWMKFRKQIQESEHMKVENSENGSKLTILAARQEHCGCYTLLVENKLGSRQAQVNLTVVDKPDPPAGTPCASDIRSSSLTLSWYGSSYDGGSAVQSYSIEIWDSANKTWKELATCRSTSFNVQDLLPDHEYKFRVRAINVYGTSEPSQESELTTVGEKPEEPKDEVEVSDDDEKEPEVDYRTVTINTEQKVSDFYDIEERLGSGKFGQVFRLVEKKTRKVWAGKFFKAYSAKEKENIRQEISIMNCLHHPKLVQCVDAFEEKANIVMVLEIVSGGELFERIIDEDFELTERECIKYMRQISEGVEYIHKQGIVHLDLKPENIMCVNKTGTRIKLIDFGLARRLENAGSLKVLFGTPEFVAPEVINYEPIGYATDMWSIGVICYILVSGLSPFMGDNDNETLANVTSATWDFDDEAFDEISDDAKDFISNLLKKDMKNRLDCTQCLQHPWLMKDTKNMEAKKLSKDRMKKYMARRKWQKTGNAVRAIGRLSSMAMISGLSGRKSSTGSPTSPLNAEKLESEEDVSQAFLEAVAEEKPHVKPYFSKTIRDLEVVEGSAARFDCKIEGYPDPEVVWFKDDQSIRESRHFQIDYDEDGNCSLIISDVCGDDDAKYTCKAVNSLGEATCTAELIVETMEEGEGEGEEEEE
# Ribosomal protein S6 kinase alpha-5 (Homo sapiens), sequence (O75582 whole entry, looked up): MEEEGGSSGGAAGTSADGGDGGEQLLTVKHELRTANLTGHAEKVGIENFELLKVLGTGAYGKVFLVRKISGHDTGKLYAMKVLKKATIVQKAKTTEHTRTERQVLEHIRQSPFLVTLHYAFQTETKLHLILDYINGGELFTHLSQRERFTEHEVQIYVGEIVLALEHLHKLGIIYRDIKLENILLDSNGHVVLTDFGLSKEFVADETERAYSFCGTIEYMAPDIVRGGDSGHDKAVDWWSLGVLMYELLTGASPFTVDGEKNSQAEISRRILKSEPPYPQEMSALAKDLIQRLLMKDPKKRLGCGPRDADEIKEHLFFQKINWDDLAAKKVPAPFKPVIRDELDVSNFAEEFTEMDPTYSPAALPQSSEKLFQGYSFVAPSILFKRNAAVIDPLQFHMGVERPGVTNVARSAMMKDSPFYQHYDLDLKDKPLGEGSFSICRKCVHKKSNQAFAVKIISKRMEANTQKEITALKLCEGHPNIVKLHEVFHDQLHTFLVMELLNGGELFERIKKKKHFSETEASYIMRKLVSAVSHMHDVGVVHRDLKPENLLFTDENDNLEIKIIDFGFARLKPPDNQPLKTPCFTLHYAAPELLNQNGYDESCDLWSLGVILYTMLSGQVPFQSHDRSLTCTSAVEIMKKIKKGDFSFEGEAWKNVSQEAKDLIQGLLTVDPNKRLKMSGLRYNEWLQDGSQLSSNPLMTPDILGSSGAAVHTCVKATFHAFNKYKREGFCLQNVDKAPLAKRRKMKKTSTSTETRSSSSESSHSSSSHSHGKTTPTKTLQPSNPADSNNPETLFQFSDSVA
# Ephrin type-A receptor 5 (Homo sapiens), sequence (P54756 whole entry): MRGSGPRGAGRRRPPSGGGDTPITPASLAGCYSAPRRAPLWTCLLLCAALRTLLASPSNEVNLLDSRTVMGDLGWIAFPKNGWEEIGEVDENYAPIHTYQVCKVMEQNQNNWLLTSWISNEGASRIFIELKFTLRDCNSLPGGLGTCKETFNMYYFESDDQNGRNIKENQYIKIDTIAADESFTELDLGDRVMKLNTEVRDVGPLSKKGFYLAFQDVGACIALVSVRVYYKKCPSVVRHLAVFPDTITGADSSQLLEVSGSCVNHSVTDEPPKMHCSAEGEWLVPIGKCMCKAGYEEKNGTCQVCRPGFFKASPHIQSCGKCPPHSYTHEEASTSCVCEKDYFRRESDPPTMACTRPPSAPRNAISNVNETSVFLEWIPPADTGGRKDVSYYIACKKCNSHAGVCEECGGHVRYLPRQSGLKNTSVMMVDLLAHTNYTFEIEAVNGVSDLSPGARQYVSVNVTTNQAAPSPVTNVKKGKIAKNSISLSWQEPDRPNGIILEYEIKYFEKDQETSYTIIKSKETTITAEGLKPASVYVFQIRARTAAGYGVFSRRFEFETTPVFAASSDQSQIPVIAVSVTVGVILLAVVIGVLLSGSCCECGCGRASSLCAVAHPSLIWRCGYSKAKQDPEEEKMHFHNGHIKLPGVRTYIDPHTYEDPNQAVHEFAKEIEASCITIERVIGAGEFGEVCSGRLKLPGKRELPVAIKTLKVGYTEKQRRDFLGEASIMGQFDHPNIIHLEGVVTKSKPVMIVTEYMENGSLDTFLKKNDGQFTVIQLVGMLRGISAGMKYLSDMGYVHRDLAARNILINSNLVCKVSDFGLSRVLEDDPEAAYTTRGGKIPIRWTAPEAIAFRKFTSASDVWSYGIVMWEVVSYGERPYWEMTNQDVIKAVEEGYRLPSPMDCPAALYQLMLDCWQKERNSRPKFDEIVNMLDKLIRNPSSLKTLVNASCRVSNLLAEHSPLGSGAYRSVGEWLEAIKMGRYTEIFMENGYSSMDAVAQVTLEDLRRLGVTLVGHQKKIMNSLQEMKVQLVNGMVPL
smiles,measurement,setting,value
COc1cc(N(C)c2ccnc3ccc(C(F)(F)F)cc23)cc(OC)c1OC,% binding,[1],90%
CN(C)CC#Cc1ccc2[nH]c3c(c2c1)-c1nc(N)ncc1CCC3,% of control,[2],13%
O=C(NOC[C@H](O)CO)c1ccc(F)c(F)c1Nc1ccc(I)cc1F,% of control,[3],96%
CC(=O)Nc1cccc(-n2c(=O)n(C3CC3)c(=O)c3c(Nc4ccc(I)cc4F)n(C)c(=O)c(C)c32)c1,% of control,[4],104%
CC[C@@H]1[C@H](F)C(=O)N[C@@H]1COc1nccc2cc(C(N)=O)c(OC)cc12 [ZIMLOVISERTIB],% of inhibition,"[5]; Selectivity number of off-targets 0, at 0.01 µM",4.1%
same,% of inhibition,"[5]; Selectivity number of off-targets 0, at 0.04 µM",23.1%
same,% of inhibition,"[5]; Selectivity number of off-targets 0, at 0.2 µM",11.5%
same,% of inhibition,"[5]; Selectivity number of off-targets 1, at 1 µM",7.9%
same,% of inhibition,"[5]; Selectivity number of off-targets 5, at 5 µM",11.7%
same,% of inhibition,[6],74%
COc1cc(Nc2nc(C)cc(-c3cnn4nc(OC)ccc34)n2)cc(C(F)(F)F)c1,% of control,[7],100%
Cc1cc(F)c(C(=O)Nc2cccc(-c3nncn3C(C)C)n2)cc1-n1cnc(C2CC2)c1,% of control,[8],97%
same,% of control,[9],100%
COCC(=O)NC/C=C/c1ccc2ncnc(Nc3ccc(Oc4ccc(C)nc4)c(C)c3)c2c1 [CP-724714],% of control,[10],100%
O[C@H]1CC[C@H](Nc2ncc3nc(Nc4c(F)cc(F)cc4F)n([C@H]4CCOC4)c3n2)CC1,% of control,[11],90%
CN(C)C/C=C/C(=O)Nc1ccc(C(=O)N2CCCC(Nc3ncc(Cl)c(-c4c[nH]c5ccccc45)n3)C2)cc1 (stereo unspecified),% of control,[12],99%
